The term IC50 denotes the point on the concentration scale where inhibition reaches its midpoint.

In one test the target is human P2X3 receptor (Homo sapiens (Human), UniProt P56373). The test can be described thus: Evaluation of human P2X3 receptor inhibitory activity (Fluo-3 calcium fluorescence, FDSS 3000, ATP stimulation).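 Also: stimulus was 50 nM ATP with fluorescence followed for 3 min, and the response per well was peak post-ATP fluorescence divided by the reading at measurement start.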 The class given is cell-based. Particulars: C6BU-1 cells stably expressing human P2X3 receptor.
Chain of human P2X3 receptor (P56373 whole entry): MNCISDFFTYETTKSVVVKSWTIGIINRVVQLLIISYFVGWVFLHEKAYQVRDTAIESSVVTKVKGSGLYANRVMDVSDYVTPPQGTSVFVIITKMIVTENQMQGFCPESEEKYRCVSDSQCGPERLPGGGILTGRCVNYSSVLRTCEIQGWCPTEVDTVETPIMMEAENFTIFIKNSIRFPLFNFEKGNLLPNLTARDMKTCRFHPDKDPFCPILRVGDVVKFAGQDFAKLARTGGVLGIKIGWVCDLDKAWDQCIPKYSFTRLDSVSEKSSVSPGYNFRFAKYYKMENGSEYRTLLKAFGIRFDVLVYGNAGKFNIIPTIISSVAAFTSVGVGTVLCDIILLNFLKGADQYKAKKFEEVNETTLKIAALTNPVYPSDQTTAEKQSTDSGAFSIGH
As to `Cc1ccc(Cn2c(=O)n(C[C@H](C)C(=O)O)c(=O)[nH]/c2=N\c2ccc(NC(=O)C(C)C)c(Cl)c2)cc1` [Compound I-1420], the IC50 was found to be 607 nM. On the same count and under the same terms, the same measure for `Cc1cc(/N=c2\[nH]c(=O)n(C[C@H](C)C(=O)NCCO)c(=O)n2Cc2ccc(Cl)cc2)ccc1OC(C)C` [Compound I-0723]: 24 nM; for `Cc1nc2ccc(/N=c3\[nH]c(=O)n([C@@H](C)[C@@H](C)C(=O)O)c(=O)n3Cc3ccc(Cl)cc3)cc2s1` [Compound I-1469]: 9 nM; for `Cc1ccc(Oc2ccc(/N=c3\[nH]c(=O)n(CCC(=O)O)c(=O)n3Cc3ccc(Cl)cc3)cc2)cn1` [Compound I-1357]: 25 nM.

For the compound `COC(=O)[C@@H](C)Cn1c(=O)[nH]/c(=N\c2cnc(OC3CCCC3)c(Cl)c2)n(Cc2ccc(C)cc2)c1=O` [Compound I-1475], the IC50 is 39 nM.

As for `CC(C)Oc1ccc(/N=c2\[nH]c(=O)n(C[C@@H]3COC(C)(C)O3)c(=O)n2Cc2ccc(Cl)cc2)cc1Cl` [Compound I-0614], the IC50 amounted to 10 nM. As for `CCn1c(=O)[nH]/c(=N\c2ccc(Oc3cccc(C(N)=O)n3)cc2)n(Cc2ccc(Cl)cc2)c1=O` [Compound I-2145], the IC50 was found to be 8 nM. Still for that read-out and setting: the same measure for `CC(C)Oc1ccc(/N=c2\[nH]c(=O)n(CCNC(=N)N)c(=O)n2Cc2ccc(Cl)cc2)cc1F` [Compound I-0659, 1-(4-chlorobenzyl)-6-(3-fluoro-4-isopropoxyphenylimino)-3-(4-imino-4-amino-3-azabutyl)-1,3,5-triazinane-2,4-dion]: 134 nM; for `Cc1ccc(Cn2c(=O)n([C@@H](C)[C@@H](C)C(=O)O)c(=O)[nH]/c2=N\c2ccc(N3CCCCC3)cc2)cc1` [Compound I-1394]: 44 nM; for `COC(=O)[C@H](C)[C@H](C)n1c(=O)[nH]/c(=N\c2ccc3oc(C)cc3c2)n(Cc2ccc(C)cc2)c1=O` [Compound I-1325]: 28 nM. Still for that read-out and setting: the value for `CCOc1ccc(/N=c2\[nH]c(=O)n(C[C@H](C)C(=O)OC)c(=O)n2Cc2ccc(Cl)cc2)cc1F` [Compound I-0602] was 20 nM; that for `CC[C@H](C)Oc1ccc(/N=c2\[nH]c(=O)n(C[C@H](C)C(=O)O)c(=O)n2Cc2ccc(Cl)cc2)cc1` [Compound I-0755] was 24 nM.

Take `O=C(O)c1cc(Oc2ccc(/N=c3\[nH]c(=O)[nH]c(=O)n3Cc3ccc(Cl)cc3)cc2F)ccn1` [Compound I-2141]: the IC50 was 7 nM. The same measure, in the same setting: the same measure for `Cc1ccc(Cn2c(=O)n(CCCC(=O)O)c(=O)[nH]/c2=N\c2ccc(Oc3ccncc3)cc2)cc1` [Compound I-1243]: 12 nM; for `CCOc1ccc(/N=c2\[nH]c(=O)n(C[C@@H](C)C(=O)OC)c(=O)n2Cc2ccc(Cl)cc2)cc1Cl` [Compound I-0590]: 4 nM; for `CCn1c(=O)[nH]/c(=N\c2ccc(Oc3cc(F)cc(C(=O)OC)c3)cc2)n(Cc2ccc(Cl)cc2)c1=O` [Compound I-2219]: 14 nM. The same measure, in the same setting: the value for `COC(=O)[C@@H](C)Cn1c(=O)[nH]/c(=N\c2ccc(OC(C)C)c(F)c2)n(Cc2ccc(F)cc2)c1=O` [Compound I-0617] was 67 nM; that for `COC(=O)[C@@H](C)[C@@H](C)n1c(=O)[nH]/c(=N\c2ccc(OC(C)C)cc2)n(Cc2ccc(C)cc2)c1=O` [Compound I-1310] was 66 nM; that for `CNC(=O)CCn1c(=O)[nH]/c(=N\c2ccc3[nH]c(C)c(C)c3c2)n(Cc2ccc(Cl)cc2)c1=O` [Compound I-1967] was 8 nM.

Take `CCn1c(=O)[nH]/c(=N\c2ccc(Oc3ccc(C)c(C(=O)OC)c3)cc2)n(Cc2ccc(Cl)cc2)c1=O` [Compound I-2015]: the IC50 is 32 nM.

In the case of `CCn1c(=O)[nH]/c(=N\c2ccc(Oc3cc(C(=O)O)ncn3)cc2)n(Cc2ccc(Cl)cc2)c1=O` [Compound I-2209], the IC50 was 8 nM. Still for that read-out and setting: the same measure for `CCCc1ccc(/N=c2\[nH]c(=O)n(C[C@H](C)C(=O)O)c(=O)n2Cc2ccc(Cl)cc2)cc1C` [Compound I-1213]: 104 nM.

Take `CC(C)Oc1ccc(/N=c2\[nH]c(=O)n(C/C(N)=N/O)c(=O)n2Cc2ccc(Cl)cc2)cc1F` [Compound I-0599]: the IC50 was found to be 38 nM.

For `Cc1ccc(Cn2c(=O)n(C[C@H](C)C(=O)O)c(=O)[nH]/c2=N\c2ccc(Oc3ccnc(O)c3)cc2)cc1` [Compound I-1440], the IC50 was 6 nM.

The test is the same for the next values; noted with them: C6BU-1 cells stably expressing human P2X3 receptor, Fluo-3 fluorescence, FDSS 3000.
Regarding `CCn1c(=O)[nH]/c(=N\c2ccc(Oc3ccnc(C)c3)cc2)n(Cc2ccc(Cl)cc2)c1=O` [Compound I-1598], the IC50 is 5 nM.

With `CCOc1ccc(/N=c2\[nH]c(=O)n(C[C@@H](C)C(=O)OC)c(=O)n2Cc2ccc(C)cc2)cc1Cl` [Compound I-1106], the IC50 was determined as 7 nM.

As to `COC(=O)[C@@H](C)Cn1c(=O)[nH]/c(=N\c2ccc(OC3CCC3)nc2)n(Cc2ccc(C)cc2)c1=O` [Compound I-1187], the IC50 was 58 nM. Still for that read-out and setting: the value for `Cc1ccc(Cn2c(=O)n(C[C@H](C)C(=O)O)c(=O)[nH]/c2=N\c2ccc(OCC3CC3)c(Cl)c2)cc1` [Compound I-0971] was 30 nM.

In the case of `CCc1nc2ccc(/N=c3\[nH]c(=O)n(CCC#N)c(=O)n3Cc3ccc(Cl)cc3)cc2s1` [Compound I-1769], the IC50 worked out at 3 nM.

Regarding `C=Cc1cc(/N=c2\[nH]c(=O)n(C[C@H](C)C(=O)OC)c(=O)n2Cc2ccc(C)cc2)ccc1OC(C)C` [Compound I-0907, (S)-1-(4-methylbenzyl)-6-(3-vinyl-4-isopropoxyphenylimino)-3-(2-methoxycarbonylpropyl)-1,3,5-triazinane-2,4-dion], the IC50 stood at 7 nM.

As to `Cc1cc(/N=c2\[nH]c(=O)n(CCC(=O)O)c(=O)n2Cc2ccc(Cl)cc2)ccc1OC(C)C` [Compound I-1157], the IC50 came to 52 nM. Still for that read-out and setting: the value for `COC(=O)[C@@H](C)[C@H](C)n1c(=O)[nH]/c(=N\c2ccc(OC(C)C)c(C)c2)n(Cc2ccc(Cl)cc2)c1=O` [Compound I-1025] was 134 nM. On the same count and under the same terms, the same measure for `CCCOc1ccc(/N=c2\[nH]c(=O)n(C[C@@H](CC)C(=O)OC)c(=O)n2Cc2ccc(Cl)cc2)cc1` [Compound I-1038]: 6 nM; for `O=C(O)c1cc(Oc2ccc(/N=c3\[nH]c(=O)[nH]c(=O)n3Cc3ccc(Cl)cc3)cc2)ccn1` [Compound I-1883]: 7 nM. Take `COC(=O)C(C)(C)Cn1c(=O)[nH]/c(=N\c2ccc3nc(C)sc3c2)n(Cc2ccc(Cl)cc2)c1=O` [Compound I-1569]: the IC50 came to 4 nM.

Turning to `COC(=O)Cn1c(=O)[nH]/c(=N\c2ccc(Oc3ccnc(C)c3)cc2)n(Cc2ccc(Cl)cc2)c1=O` [Compound I-1754], the IC50 is 5 nM. Same read-out and setting: the value for `C[C@@H](C(=O)O)[C@H](C)n1c(=O)[nH]/c(=N\c2ccc3oc4c(c3c2)CCCCC4)n(Cc2ccc(Cl)cc2)c1=O` [Compound I-1747] was 201 nM. On the same count and under the same terms, the same measure for `CC(C)n1c(=O)nc(Nc2ccc3oc(=O)[nH]c3c2)n(Cc2ccc(Cl)cc2)c1=O` [Compound I-0249]: 953 nM; for `O=c1[nH]/c(=N\c2ccc(Oc3cncc(F)c3)cc2)n(Cc2ccc(Cl)cc2)c(=O)n1CCCO` [Compound I-1596]: 4 nM; for `CCCCCOc1ccc(/N=c2\[nH]c(=O)n(CCC(=O)O)c(=O)n2Cc2ccc(C)cc2)cc1` [Compound I-1072]: 252 nM.

As to `CCCc1nc2ccc(/N=c3\[nH]c(=O)n(CCC(=O)O)c(=O)n3Cc3ccc(C)cc3)cc2s1` [Compound I-1560], the IC50 was 51 nM.

The test is the same for the next values; noted with them: human P2X3 receptor, Test Example 1.
Take `Cc1nnc(Oc2ccc(/N=c3\[nH]c(=O)n(CC(CO)CO)c(=O)n3Cc3ccc(Cl)cc3)cc2)s1` [Compound I-2517]: the half-maximal inhibitory concentration (IC50) came out at 167 nM.

Consider `Cn1c(=O)[nH]/c(=N\c2ccc(Oc3nc(C(N)=O)cs3)cc2)n(Cc2ccc(Cl)cc2)c1=O` [Compound I-2415], for which the IC50 was found to be 9 nM. Same read-out and setting: the value for `CC(CO)(CO)Cn1c(=O)[nH]/c(=N\c2ccc(OCC3CC3)cc2)n(Cc2ccc(F)cc2)c1=O` [Compound I-2617] was 42 nM; that for `Cc1cc(/N=c2\[nH]c(=O)n([C@H]3CC[C@H](C(=O)O)CC3)c(=O)n2Cc2ccc(Cl)cc2)ccc1OC(C)C` [Compound I-0850] was 62 nM.

Regarding `CCn1c(=O)[nH]/c(=N\c2ccc(Sc3ccc(C(=O)OC)cc3)cc2)n(Cc2ccc(Cl)cc2)c1=O` [Compound I-2597], the IC50 came out at 215 nM. Same read-out and setting: the same measure for `Cc1ccc(Cn2c(=O)n(CCC(=O)O)c(=O)[nH]/c2=N\c2ccc(Oc3ccc(C#N)cn3)cc2)cc1` [Compound I-2635]: 8 nM; for `COC(=O)[C@@H](C)Cn1c(=O)[nH]/c(=N\c2ccc(CC(C)C)cc2)n(Cc2ccc(C)cc2)c1=O` [Compound I-0860]: 62 nM; for `O=c1[nH]/c(=N\c2ccc(Oc3cnsn3)cc2)n(Cc2ccc(Cl)cc2)c(=O)n1CC(CO)CO` [Compound I-2478]: 5 nM.

Consider `Cc1cc(Oc2ccc(/N=c3\[nH]c(=O)n(C[C@H]4COC(C)(C)O4)c(=O)n3Cc3ccc(Cl)cc3)cc2)n(C)n1` [Compound I-2368], for which the IC50 was 13 nM. The same measure, in the same setting: the value for `COC(=O)/C=C/c1cccc(Oc2ccc(/N=c3\[nH]c(=O)n(C)c(=O)n3Cc3ccc(C)cc3)cc2)c1` [Compound I-2328] was 34 nM; that for `O=c1[nH]/c(=N\c2ccc(Oc3ncccn3)cc2)n(Cc2ccc(Cl)cc2)c(=O)n1CC(CO)CO` [Compound I-2544] was 11 nM. On to `CC(CO)(CO)Cn1c(=O)[nH]/c(=N\c2ccc(Oc3ccon3)c(F)c2)n(Cc2ccc(F)cc2)c1=O` [Compound I-2574], for which the IC50 came out at 11 nM.

Consider `CCn1c(=O)[nH]/c(=N\c2ccc(Oc3ccnc(C(=O)NC)c3)c(F)c2)n(Cc2ccc(Cl)cc2)c1=O` [Compound I-2432], for which the IC50 stood at 2 nM. Same read-out and setting: the value for `O=c1[nH]/c(=N\c2ccc(Oc3ncns3)cc2)n(Cc2ccc(Cl)cc2)c(=O)n1C[C@H](O)CO` [Compound I-2519] was 4 nM. The same measure, in the same setting: the value for `CCn1c(=O)[nH]/c(=N\c2ccc(Oc3ccc(C(=O)OC)nc3)cc2)n(Cc2ccc(Cl)cn2)c1=O` [Compound I-2275] was 10 nM; that for `CCOC(=O)CNc1ccc(Oc2ccc(/N=c3\[nH]c(=O)n(CC)c(=O)n3Cc3ccc(Cl)cc3)cc2)cn1` [Compound I-2614] was 27 nM; that for `Cc1ccc(Cn2c(=O)n(C)c(=O)[nH]/c2=N\c2ccc(Oc3cc(C(N)=O)ccn3)cc2)cc1` [Compound I-2342] was 16 nM.

For the origin of these results see patent publication US9718790B2, “Triazine derivative and pharmaceutical composition having an analgesic activity comprising the same” (SHIONOGI & CO., LTD., priority 2010, dated 2017).
